Assay results reported in US20080051457A1, “Optically Active Phthalamide Derivative, Agricultural or Horticultural Insecticide, and Method of Using the Same” (priority 2004, published 2008).

assay: logP (pH2.3), physical properties of Tables 1 to 3; type: physicochemical; settings: not given
Text: However, the present invention is not limited to these compounds. In the tables, the term “physical properties” means a melting point or logp. The symbol “Me” represents a methyl group, “Et” represents an ethyl group, “Pr” represents a propyl group, “-n” represents normal, and “-i” represents iso.

| Structure (SMILES) | Physical properties logP(pH2.3) |
| --- | --- |
| CC[C@@H](CSC)NC(=O)c1c(Cl)cccc1C(=O)Nc1ccc(C(F)(C(F)(F)F)C(F)(F)F)cc1C [Compound 1-339] | 4.47 |
| CC[C@@H](CS(C)(=O)=O)NC(=O)c1c(Cl)cccc1C(=O)Nc1ccc(C(F)(C(F)(F)F)C(F)(F)F)cc1C [Compound 1-341] | 3.31 |
| CC[C@@H](CSC)NC(=O)c1c(Br)cccc1C(=O)Nc1ccc(C(F)(C(F)(F)F)C(F)(F)F)cc1C [Compound 1-342] | 4.54 |
| CC[C@@H](C[S+](C)[O-])NC(=O)c1c(Br)cccc1C(=O)Nc1ccc(C(F)(C(F)(F)F)C(F)(F)F)cc1C (some centres unmarked) [Compound 1-343] | 2.83 |
| CC[C@@H](CS(C)(=O)=O)NC(=O)c1c(Br)cccc1C(=O)Nc1ccc(C(F)(C(F)(F)F)C(F)(F)F)cc1C [Compound 1-344] | 3.37 |
| CC[C@@H](CSC)NC(=O)c1c(I)cccc1C(=O)Nc1ccc(C(F)(C(F)(F)F)C(F)(F)F)cc1C [Compound 1-345] | 4.62 |
| CC[C@@H](C[S+](C)[O-])NC(=O)c1c(I)cccc1C(=O)Nc1ccc(C(F)(C(F)(F)F)C(F)(F)F)cc1C (some centres unmarked) [Compound 1-346] | 2.90 |
| CC[C@@H](CS(C)(=O)=O)NC(=O)c1c(I)cccc1C(=O)Nc1ccc(C(F)(C(F)(F)F)C(F)(F)F)cc1C [Compound 1-347] | 3.45 |
| CSC[C@@H](NC(=O)c1c(Cl)cccc1C(=O)Nc1ccc(C(F)(C(F)(F)F)C(F)(F)F)cc1C)C(C)C [Compound 1-348] | 4.77 |
| Cc1cc(C(F)(C(F)(F)F)C(F)(F)F)ccc1NC(=O)c1cccc(Cl)c1C(=O)N[C@H](C[S+](C)[O-])C(C)C (some centres unmarked) [Compound 1-349] | 3.03 |
| Cc1cc(C(F)(C(F)(F)F)C(F)(F)F)ccc1NC(=O)c1cccc(Cl)c1C(=O)N[C@H](CS(C)(=O)=O)C(C)C [Compound 1-350] | 3.54 |
| CSC[C@@H](NC(=O)c1c(Br)cccc1C(=O)Nc1ccc(C(F)(C(F)(F)F)C(F)(F)F)cc1C)C(C)C [Compound 1-351] | 4.80 |
| Cc1cc(C(F)(C(F)(F)F)C(F)(F)F)ccc1NC(=O)c1cccc(Br)c1C(=O)N[C@H](C[S+](C)[O-])C(C)C (some centres unmarked) [Compound 1-352] | 3.06 |
| Cc1cc(C(F)(C(F)(F)F)C(F)(F)F)ccc1NC(=O)c1cccc(Br)c1C(=O)N[C@H](CS(C)(=O)=O)C(C)C [Compound 1-353] | 3.62 |
| CSC[C@@H](NC(=O)c1c(I)cccc1C(=O)Nc1ccc(C(F)(C(F)(F)F)C(F)(F)F)cc1C)C(C)C [Compound 1-354] | 4.97 |
| Cc1cc(C(F)(C(F)(F)F)C(F)(F)F)ccc1NC(=O)c1cccc(I)c1C(=O)N[C@H](C[S+](C)[O-])C(C)C (some centres unmarked) [Compound 1-355] | 3.13 |
| Cc1cc(C(F)(C(F)(F)F)C(F)(F)F)ccc1NC(=O)c1cccc(I)c1C(=O)N[C@H](CS(C)(=O)=O)C(C)C [Compound 1-356] | 3.70 |
| CSC[C@H](CC(C)C)NC(=O)c1c(Cl)cccc1C(=O)Nc1ccc(C(F)(C(F)(F)F)C(F)(F)F)cc1C [Compound 1-357] | 5.11 |
| Cc1cc(C(F)(C(F)(F)F)C(F)(F)F)ccc1NC(=O)c1cccc(Cl)c1C(=O)N[C@@H](CC(C)C)C[S+](C)[O-] (some centres unmarked) [Compound 1-358] | 3.27 |
| Cc1cc(C(F)(C(F)(F)F)C(F)(F)F)ccc1NC(=O)c1cccc(Cl)c1C(=O)N[C@@H](CC(C)C)CS(C)(=O)=O [Compound 1-359] | 3.77 |

same assay, conditions: Table 1

| Structure (SMILES) | Physical properties: logP |
| --- | --- |
| Cc1c(NC(=O)c2cccc(Br)c2C(=O)N[C@@H](C)CS(C)(=O)=O)ccc(C(F)(C(F)(F)F)C(F)(F)F)c1F [Compound 1-170] | 3.21 |
| CCSC[C@H](C)NC(=O)c1c(Br)cccc1C(=O)Nc1ccc(C(F)(F)C(F)(F)F)c(F)c1C [Compound 1-171] | 4.26 |
| CC[S+]([O-])C[C@H](C)NC(=O)c1c(Br)cccc1C(=O)Nc1ccc(C(F)(F)C(F)(F)F)c(F)c1C (some centres unmarked) [Compound 1-172] | 2.59 |
| CCS(=O)(=O)C[C@H](C)NC(=O)c1c(Br)cccc1C(=O)Nc1ccc(C(F)(F)C(F)(F)F)c(F)c1C [Compound 1-173] | 3.06 |
| CCSC[C@H](C)NC(=O)c1c(Br)cccc1C(=O)Nc1ccc(C(F)(F)C(F)(F)F)c(Cl)c1C [Compound 1-174] | 4.43 |
| CCS(=O)(=O)C[C@H](C)NC(=O)c1c(Br)cccc1C(=O)Nc1ccc(C(F)(F)C(F)(F)F)c(Cl)c1C [Compound 1-176] | 3.19 |
| CCSC[C@H](C)NC(=O)c1c(Br)cccc1C(=O)Nc1ccc(Br)c(F)c1C [Compound 1-177] | 3.54 |
| CCS(=O)(=O)C[C@H](C)NC(=O)c1c(Br)cccc1C(=O)Nc1ccc(Br)c(F)c1C [Compound 1-179] | 2.39 |
| CCSC[C@H](C)NC(=O)c1c(Br)cccc1C(=O)Nc1ccc(C(F)(F)F)c(F)c1C [Compound 1-180] | 3.80 |
| CCS(=O)(=O)C[C@H](C)NC(=O)c1c(Br)cccc1C(=O)Nc1ccc(C(F)(F)F)c(F)c1C [Compound 1-182] | 2.66 |
| CCSC[C@H](C)NC(=O)c1c(Br)cccc1C(=O)Nc1ccc(I)c(F)c1C [Compound 1-183] | 3.66 |
| CCS(=O)(=O)C[C@H](C)NC(=O)c1c(Br)cccc1C(=O)Nc1ccc(I)c(F)c1C [Compound 1-185] | 2.51 |
| CCSC[C@H](C)NC(=O)c1c(Br)cccc1C(=O)Nc1ccc(Br)c(Br)c1C [Compound 1-186] | 3.78 |
| CCS(=O)(=O)C[C@H](C)NC(=O)c1c(Br)cccc1C(=O)Nc1ccc(Br)c(Br)c1C [Compound 1-188] | 2.59 |
| CCSC[C@H](C)NC(=O)c1c(Br)cccc1C(=O)Nc1ccc(OC(F)(F)F)c(F)c1C [Compound 1-189] | 3.81 |
| CCS(=O)(=O)C[C@H](C)NC(=O)c1c(Br)cccc1C(=O)Nc1ccc(OC(F)(F)F)c(F)c1C [Compound 1-191] | 2.69 |
| CCSC[C@H](C)NC(=O)c1c(Br)cccc1C(=O)Nc1cc(F)c(OC(F)(F)F)cc1Cl [Compound 1-192] | 4.16 |
| CCS(=O)(=O)C[C@H](C)NC(=O)c1c(Br)cccc1C(=O)Nc1cc(F)c(OC(F)(F)F)cc1Cl [Compound 1-194] | 2.96 |
| CCSC[C@H](C)NC(=O)c1c(Br)cccc1C(=O)Nc1cc(F)c(OC(F)(F)F)cc1Br [Compound 1-195] | 4.18 |
| CCS(=O)(=O)C[C@H](C)NC(=O)c1c(Br)cccc1C(=O)Nc1cc(F)c(OC(F)(F)F)cc1Br [Compound 1-197] | 2.99 |

| Structure (SMILES) | Physical properties: logP |
| --- | --- |
| CCSC[C@H](C)NC(=O)c1c(Br)cccc1C(=O)Nc1ccc(C(F)(C(F)(F)F)C(F)(F)F)c(F)c1C [Compound 1-198] | 4.63 |
| CC[S+]([O-])C[C@H](C)NC(=O)c1c(Br)cccc1C(=O)Nc1ccc(C(F)(C(F)(F)F)C(F)(F)F)c(F)c1C (some centres unmarked) [Compound 1-199] | 2.90 |
| CCS(=O)(=O)C[C@H](C)NC(=O)c1c(Br)cccc1C(=O)Nc1ccc(C(F)(C(F)(F)F)C(F)(F)F)c(F)c1C [Compound 1-200] | 3.39 |
| CCSC[C@H](C)NC(=O)c1c(Cl)cccc1C(=O)Nc1ccc(C(F)(C(F)(F)F)C(F)(F)F)c(F)c1C [Compound 1-201] | 4.54 |
| CC[S+]([O-])C[C@H](C)NC(=O)c1c(Cl)cccc1C(=O)Nc1ccc(C(F)(C(F)(F)F)C(F)(F)F)c(F)c1C (some centres unmarked) [Compound 1-202] | 2.86 |
| CCS(=O)(=O)C[C@H](C)NC(=O)c1c(Cl)cccc1C(=O)Nc1ccc(C(F)(C(F)(F)F)C(F)(F)F)c(F)c1C [Compound 1-203] | 3.34 |
| CSC[C@H](C)NC(=O)c1c(Cl)cccc1C(=O)Nc1ccc(C(F)(C(F)(F)F)C(F)(F)F)c(F)c1C [Compound 1-204] | 4.23 |
| Cc1c(NC(=O)c2cccc(Cl)c2C(=O)N[C@@H](C)C[S+](C)[O-])ccc(C(F)(C(F)(F)F)C(F)(F)F)c1F (some centres unmarked) [Compound 1-205] | 2.69 |
| CCSC[C@H](C)NC(=O)c1c(Cl)cccc1C(=O)Nc1ccc(C(F)(F)C(F)(F)F)c(F)c1C [Compound 1-207] | 4.21 |
| CC[S+]([O-])C[C@H](C)NC(=O)c1c(Cl)cccc1C(=O)Nc1ccc(C(F)(F)C(F)(F)F)c(F)c1C (some centres unmarked) [Compound 1-208] | 2.56 |
| CCS(=O)(=O)C[C@H](C)NC(=O)c1c(Cl)cccc1C(=O)Nc1ccc(C(F)(F)C(F)(F)F)c(F)c1C [Compound 1-209] | 3.01 |
| CCSC[C@H](C)NC(=O)c1c(Cl)cccc1C(=O)Nc1ccc(C(F)(F)C(F)(F)F)c(Cl)c1C [Compound 1-210] | 4.37 |
| CCS(=O)(=O)C[C@H](C)NC(=O)c1c(Cl)cccc1C(=O)Nc1ccc(C(F)(F)C(F)(F)F)c(Cl)c1C [Compound 1-212] | 3.14 |
| CSC[C@H](C)NC(=O)c1c(Cl)cccc1C(=O)Nc1ccc(C(F)(F)C(F)(F)F)c(F)c1C [Compound 1-213] | 3.88 |
| Cc1c(NC(=O)c2cccc(Cl)c2C(=O)N[C@@H](C)CS(C)(=O)=O)ccc(C(F)(F)C(F)(F)F)c1F [Compound 1-215] | 2.82 |
| CCc1cc(C(F)(C(F)(F)F)C(F)(F)F)ccc1NC(=O)c1cccc(Cl)c1C(=O)N[C@@H](C)CSC [Compound 1-216] | 4.36 |
| CCc1cc(C(F)(C(F)(F)F)C(F)(F)F)ccc1NC(=O)c1cccc(Cl)c1C(=O)N[C@@H](C)CS(C)(=O)=O [Compound 1-218] | 3.26 |
| CCc1cc(C(F)(C(F)(F)F)C(F)(F)F)ccc1NC(=O)c1cccc(Br)c1C(=O)N[C@@H](C)CSC [Compound 1-219] | 4.42 |
| CCc1cc(C(F)(C(F)(F)F)C(F)(F)F)ccc1NC(=O)c1cccc(Br)c1C(=O)N[C@@H](C)CS(C)(=O)=O [Compound 1-221] | 3.31 |
